Test results: PubChem BioAssay (NCI)
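Growth conditions: 96-well plates. Treatment: test compound, 48 hours, 5 concentrations. Analysis: linear interpolation between bracketing concentrations; unreached endpoints set to highest concentration. Definition used: TGI = concentration required for complete inhibition of growth.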

Tests used:
Test in all cases: NCI anticancer screen, dose series, 48 h
[1] = tested on: COLO 205 colon
[2] = tested on: SF-295 CNS
[3] = tested on: NCI-H522 lung
[4] = tested on: SK-OV-3 ovarian
[5] = tested on: OVCAR-5 ovarian
[6] = tested on: NCI-H460 lung
[7] = tested on: RXF-631 renal
[8] = tested on: RPMI-8226 leukemia
[9] = tested on: UACC-257 melanoma
[10] = tested on: SNB-19 CNS
[11] = tested on: SNB-78 CNS
[12] = tested on: M19-MEL melanoma
[13] = tested on: UO-31 renal
[14] = tested on: NCI-H226 lung
[15] = tested on: HCC-2998 colon
[16] = tested on: 786-0 renal
[17] = tested on: TK-10 renal
[18] = tested on: SK-MEL-28 melanoma
[19] = tested on: MALME-3M melanoma
[20] = tested on: HL-60(TB) leukemia
[21] = tested on: CCRF-CEM leukemia
[22] = tested on: SF-268 CNS
[23] = tested on: ACHN renal
[24] = tested on: A549 NSCLC
[25] = tested on: HCT-15 colon
[26] = tested on: UACC-62 melanoma
[27] = tested on: LOX IMVI melanoma
[28] = tested on: DMS 114 small cell lung
[29] = tested on: RXF 393 renal
[30] = tested on: SN12C renal
[31] = tested on: EKVX NSCLC
[32] = tested on: KM12 colon
[33] = tested on: SW-620 colon
[34] = tested on: SK-MEL-5 melanoma
[35] = tested on: OVCAR-3 ovarian
[36] = tested on: HOP-62 NSCLC
[37] = tested on: KM20L2 colon
[38] = tested on: U251 CNS
[39] = tested on: LXFL 529 NSCLC
[40] = tested on: HOP-18 NSCLC
[41] = tested on: SNB-75 CNS
[42] = tested on: OVCAR-8 ovarian
[43] = tested on: A498 renal
[44] = tested on: M14 melanoma
[45] = tested on: IGROV1 ovarian
[46] = tested on: SF-539 CNS
[47] = tested on: NCI-H23 lung
[48] = tested on: K-562 leukemia
[49] = tested on: MOLT-4 leukemia
[50] = tested on: SK-MEL-2 melanoma
[51] = tested on: OVCAR-4 ovarian
[52] = tested on: DLD-1 colon
[53] = tested on: DMS 273 small cell lung
[54] = tested on: CAKI-1 renal
[55] = tested on: HOP-92 NSCLC
[56] = tested on: HCT-116 colon
[57] = tested on: XF 498 CNS
[58] = tested on: SR leukemia

## Cc1c(C)c2cc3c(=O)ccoc3c(C)c2oc1=O
[1]
  TGI: > 100 µM
[2]
  TGI: > 100 µM
[3]
  TGI: > 100 µM
[4]
  TGI: > 100 µM
[5]
  TGI: > 100 µM
[6]
  TGI: > 100 µM
[7]
  TGI: > 100 µM
[8]
  TGI: > 100 µM
[9]
  TGI: > 100 µM
[10]
  TGI: > 100 µM
[11]
  TGI: > 100 µM
[12]
  TGI: > 100 µM
[13]
  TGI: > 100 µM
[14]
  TGI: > 100 µM
[15]
  TGI: > 100 µM
[16]
  TGI: > 100 µM
[17]
  TGI: > 100 µM
[18]
  TGI: > 100 µM
[19]
  TGI: > 100 µM
[20]
  TGI: > 100 µM
[21]
  TGI: > 100 µM
[22]
  TGI: > 100 µM
[23]
  TGI: > 100 µM
[24]
  TGI: > 100 µM
[25]
  TGI: > 100 µM
[26]
  TGI: > 100 µM
[27]
  TGI: > 100 µM
[28]
  TGI: > 100 µM
[29]
  TGI: > 100 µM
[30]
  TGI: > 100 µM
[31]
  TGI: > 100 µM
[32]
  TGI: > 100 µM
[33]
  TGI: > 100 µM
[34]
  TGI: > 100 µM
[35]
  TGI: > 100 µM
[36]
  TGI: > 100 µM
[37]
  TGI: > 100 µM
[38]
  TGI: > 100 µM
[39]
  TGI: > 100 µM
[40]
  TGI: > 100 µM
[41]
  TGI: 85.2 µM
[42]
  TGI: > 100 µM
[43]
  TGI: > 100 µM
[44]
  TGI: > 100 µM
[45]
  TGI: > 100 µM
[46]
  TGI: > 100 µM
[47]
  TGI: > 100 µM
[48]
  TGI: > 100 µM
[49]
  TGI: 92.7 µM
[50]
  TGI: > 100 µM

## CC(=O)N(CCN)CCN
[1]
  TGI: > 10 µM
[2]
  TGI: > 10 µM
[51]
  TGI: > 10 µM
[3]
  TGI: > 10 µM
[4]
  TGI: > 100 µM
[6]
  TGI: > 10 µM
[7]
  TGI: > 10 µM
[8]
  TGI: > 10 µM
[9]
  TGI: > 10 µM
[10]
  TGI: > 10 µM
[11]
  TGI: > 10 µM
[12]
  TGI: > 10 µM
[13]
  TGI: > 10 µM
[52]
  TGI: > 100 µM
[15]
  TGI: > 10 µM
[16]
  TGI: > 10 µM
[17]
  TGI: > 10 µM
[18]
  TGI: > 10 µM
[20]
  TGI: > 10 µM
[21]
  TGI: > 10 µM
[53]
  TGI: > 10 µM
[22]
  TGI: > 100 µM
[23]
  TGI: > 100 µM
[24]
  TGI: > 10 µM
[25]
  TGI: > 100 µM
[26]
  TGI: > 100 µM
[54]
  TGI: > 10 µM
[27]
  TGI: > 10 µM
[28]
  TGI: > 10 µM
[29]
  TGI: > 10 µM
[55]
  TGI: > 10 µM
[30]
  TGI: > 10 µM
[31]
  TGI: > 100 µM
[56]
  TGI: > 10 µM
[32]
  TGI: > 10 µM
[33]
  TGI: > 10 µM
[34]
  TGI: > 100 µM
[35]
  TGI: > 10 µM
[36]
  TGI: > 10 µM
[37]
  TGI: > 10 µM
[38]
  TGI: > 10 µM
[39]
  TGI: > 10 µM
[57]
  TGI: > 100 µM
[41]
  TGI: > 100 µM
[42]
  TGI: > 10 µM
[43]
  TGI: > 10 µM
[44]
  TGI: > 10 µM
[58]
  TGI: > 10 µM
[47]
  TGI: > 10 µM
[48]
  TGI: > 10 µM
[49]
  TGI: > 10 µM
[50]
  TGI: > 100 µM
